Legend:
E. coli Juhl = assay: Protective dose for mice infected with lethal inoculum; type: in vivo; conditions: 50% survival after five days
Description: (§1) The data in Table 2 are results of protective doses (PD50) for mice infected with a lethal inoculum of bacteria. Two different bacteria were employed in the studies, one a Gram-positive organism (S. aureus Smith) and the other a Gram-negative organism (E. coli Juhl). The PD50 is that dose which, when administered to a group of injected mice, results in 50% survival after five days. Normally untreated infected mice die within three days following injection of the lethal inoculum.

S. aureus Smith = assay: as above; type: in vivo; conditions: 50% survival after five days
Description: as §1

[1] = tested on: Gp-Ia organisms (Gram-positive staphylococci sensitive to penicillin); assay: In vitro activity, agar dilution, group of five strains; type: cell-based
Description: (§2) Each of these groups of organisms is constituted of five individual strains of microorganism. The Gp-Ia organisms are Gram-positive staphylococci which are sensitive to penicillin. The Gp-Ib organisms are Gram-positive staphylococci which are resistant to penicillin and produce penicillinase. The Gn-Ia organisms are Gram-negative bacteria which are sensitive to ampicillin and cephalothin. The Gn-Ib organisms are Gram-negative bacteria which are resistant to ampicillin and cephalothin.

[2] = tested on: Gp-Ib organisms (Gram-positive staphylococci resistant to penicillin); assay: as above; type: cell-based
Description: as §2

[3] = tested on: Gram-positive bacteria, Gram-negative bacteria and fastidious bacteria; assay: Antibacterial activity (summary statement); type: cell-based
[4] = tested on: S. aureus Smith and E. coli Juhl; assay: Protective effect in mice infected with a lethal inoculum (overall); type: in vivo
Description: as §1

Compound: C/C=C\C1=C(C(=O)O)N2C(=O)C(NC(=O)[C@H](N)c3cccc(O)c3)[C@H]2SC1 (some centres unmarked) [BMY-28272, 7-[(D)-2-amino-2-(3-hydroxyphenyl)acetamido]-3-[(Z)-1-propenyl]-3-cephem-4-carboxylic acid]
- PD50 (protective dose) (E. coli Juhl; im): 1.9
- PD50 (protective dose) (E. coli Juhl; po): 2.6
- PD50 (protective dose) (S. aureus Smith; im): 0.29
- PD50 (protective dose) (S. aureus Smith; po): 0.17
- activity relative to BMY-28100 [1]: same as BMY-28100
- activity relative to cephalexin and cefaclor [1]: two or four times more active than cephalexin and cefaclor
- activity relative to BMY-28100 [2]: slightly less active than BMY-28100
- activity relative to cephalexin or cefaclor [2]: three times more active than cephalexin or cefaclor
- activity against Gram-positive bacteria [3]: strong activity against Gram-positive bacteria
- spectrum of activity against Gram-negative and fastidious bacteria relative to cephalexin and cefaclor [3]: improved spectrum of activity against Gram-negative bacteria and fastidious bacteria relative to cephalexin and cefaclor
- effectiveness in vivo [4]: effectiveness of BMY-28272 in vivo is confirmed
